Source: patent US8383824B2, “Heterocyclic antiviral compounds” (Roche Palo Alto LLC, priority 2009, dated 2013)

Tests used:
[1] = system: HCV replicon cells (2209-23); assay: HCV replicon assay (Renilla luciferase reporter); type: cell-based, HCV genotype 1b replicon in human hepatoma Huh7 cells; settings: Hepatitis C virus, 72 h; 2209-23 cells, three days incubation
[2] = Determination of pharmacokinetic parameters in rats; type: in vivo; settings: male, Wistar Han (Hanover-Wistar), Crl:WI(GLx/BRL/Han)IGS BR, rat, oral gavage, 10 mg/kg, plasma; for AUC(0-t): read-out: AUC0→24 (extrapolated)
Description: Intact male IGS Wistar Han Rats Crl:WI(GLx/BRL/Han)IGS BR (Hanover-Wistar) rats weighing 200-250 g were used. Groups of three rats were used for each dose level of an experimental compound. Animals were allowed normal access to chow and water throughout the experiment. The test substance was formulated as an aqueous suspension containing Captex355EP, Capmul MCM, EtOH, and propylene glycol (30:20:20:30) at a dose equivalent to 10 mg/kg of the I-6 and was administered orally by gavage. A blood sample (0.3 mL) was collected from the treated rats at, 0.25, 0.5, 1, 3, 5, and 8 h from a jugular cannula and at 24 h by cardiac puncture. Potassium oxalate/NaF were added to the samples which were stored on ice during sampling procedure. The samples were spun in a refrigerated centrifuge at […] as soon as possible and the plasma samples were stored in a −80° C. freezer until analysis. Aliquots of plasma (0.05 mL) were mixed with 0.1 mL of acetonitrile. Internal standard (0.05 mL in water) and 0.02 mL blank solvent were added. A set of calibration standards was prepared by mixing 0.05-mL aliquots of plasma from untreated rats with 0.1 mL acetonitrile, 0.02-mL aliquots of standard solution in methanol:water (1:1) and 0.05-mL aliquots of the internal standard in water. Each plasma sample and calibration standard was vortexed thoroughly and then centrifuged at 3000 rpm for 5 min to precipitate the protein. Supernatant (100 μL each) from centrifugation was transferred into a 96-well plate containing 200 μL of aqueous mobie phase for LC/MS/MS analysis.

HCV = settings: monotherapy; cited from earlier work

AUC [2] [ng·h/mL]	Cmax [2] [ng/mL]	AUC(0-t) [2] [ng·h/mL]	Structure (SMILES)	IC50 [1] [nM]	patients with serum amino transferase levels reduced to normal (HCV) [%]
			[2H]C([2H])([2H])C(c1cc(-c2ccc[nH]c2=O)cc(/C=C/c2ccc(NS(C)(=O)=O)cc2)c1OC)(C([2H])([2H])[2H])C([2H])([2H])[2H] [Compound I-1, N-(4-{(E)-2-[3-[1,1-di(methyl-d3)ethyl-2,2,2-d3]-2-methoxy-5-(2-oxo-1,2-dihydro-pyridin-3-yl)-phenyl]-vinyl}-phenyl)-methanesulfonamide]	6.1	
810	83.4	1000	[2H]C([2H])([2H])C(c1cc(-c2cc(Cl)c[nH]c2=O)cc(/C=C/c2ccc(NS(C)(=O)=O)cc2)c1OC)(C([2H])([2H])[2H])C([2H])([2H])[2H] [Compound I-3, N-(4-{(E)-2-[3-[1,1-di(methyl-d3)ethyl-2,2,2-d3]-2-methoxy-5-(2-oxo-5-chloro-1,2-dihydro-pyridin-3-yl)-phenyl]-vinyl}-phenyl)-methanesulfonamide]		
			[2H]C([2H])([2H])C(c1cc(-c2c[nH]c(=O)[nH]c2=O)cc(/C=C/c2ccc(NS(C)(=O)=O)cc2)c1OC)(C([2H])([2H])[2H])C([2H])([2H])[2H] [Compound I-4, N-(4-{(E)-2-[3-[1,1-di(methyl-d3)ethyl-2,2,2-d3]-5-(2,4-dioxo-1,2,3,4-tetrahydro-pyrimidin-5-yl)-2-methoxy-phenyl]-vinyl}-phenyl)-methanesulfonamide]	3.9	
338	55.8	365	COc1c(/C=C/c2ccc(NS(C)(=O)=O)cc2)cc(-c2cc(Cl)c[nH]c2=O)cc1C(C)(C)C [I-3 (non-deuterated), reference compound]		
			NC(=O)c1ncn([C@@H]2O[C@H](CO)[C@@H](O)[C@H]2O)n1 [ribavirin, 1-((2R,3R,4S,5R)-3,4-Dihydroxy-5-hydroxymethyl-tetrahydro-furan-2-yl)-1H-[1,2,4]triazole-3-carboxylic acid amide]		40
